Experimental data published in patent US20160106439A1, “PNEUMATIC TOURNIQUET” (BIONUMERIK PHARMACEUTICALS, INC., priority 2013, published 2016).
Where two headings read alike, the source gives them in different places.

Assays:
IGF1R = IGF1R (Homo sapiens, UniProt P08069); experiment: IGF1R kinase assay (ADP-glo) after pre-incubation; format: biochemical
Method: Prior to initiating the IGF1R kinase assays, IGF1R was incubated with Tavocept-IGF1R kinase phosphorylated the IGF1Rtide substrate using the ATP cofactor and produced ADP. The assays in half area 96-well microtiter plates were 10 μL in volume and contained IGF1R (4 ng total or 0.4 ng/μL), ATP (100 μM), IGF1Rtide substrate ([…]), and the concentrations of the various test articles as indicated. Additionally, kinase assay buffer was added to achieve a final reaction volume of 10 μL per assay. IGF1R kinase reactions were incubated for 60 minutes at 25° C. in a water bath. Following this 60 minute incubation, reactions were transferred to microplates and the kinase activity was evaluated using the ADP-glo system from Promega (this system monitors ADP produced when IGF1R phosphorylates the IGF1Rtide substrate).

Human Grx = molecular target: T1, Human Grx (Homo sapiens, UniProt P35754); experiment: MS and crystal structure of Grx with Tavocept-derived mesna adducts; format: binding
T1 construct: 6xHis (TEV-cleavable) (N, cleaved yes); made in house; host or cells: E. coli BL21 (RIPL)
T1 sequence (P35754 whole entry): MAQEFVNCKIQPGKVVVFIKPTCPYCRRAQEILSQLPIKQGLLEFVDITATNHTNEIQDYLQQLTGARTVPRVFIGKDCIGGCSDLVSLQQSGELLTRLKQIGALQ

[1] = molecular target: T2, Anaplastic Lymphoma Kinase (ALK) (Homo sapiens, UniProt Q9UM73); experiment: ALK kinase activity (summary Table 27); format: biochemical
T2 construct: illustrates the kinase domain of ALK (residues 1058-1623) which was used in these experiments; purchased Millipore; host or cells: Sf21 insect cells (baculovirus)
T2 sequence (Q9UM73 1058-1620 limits assumed): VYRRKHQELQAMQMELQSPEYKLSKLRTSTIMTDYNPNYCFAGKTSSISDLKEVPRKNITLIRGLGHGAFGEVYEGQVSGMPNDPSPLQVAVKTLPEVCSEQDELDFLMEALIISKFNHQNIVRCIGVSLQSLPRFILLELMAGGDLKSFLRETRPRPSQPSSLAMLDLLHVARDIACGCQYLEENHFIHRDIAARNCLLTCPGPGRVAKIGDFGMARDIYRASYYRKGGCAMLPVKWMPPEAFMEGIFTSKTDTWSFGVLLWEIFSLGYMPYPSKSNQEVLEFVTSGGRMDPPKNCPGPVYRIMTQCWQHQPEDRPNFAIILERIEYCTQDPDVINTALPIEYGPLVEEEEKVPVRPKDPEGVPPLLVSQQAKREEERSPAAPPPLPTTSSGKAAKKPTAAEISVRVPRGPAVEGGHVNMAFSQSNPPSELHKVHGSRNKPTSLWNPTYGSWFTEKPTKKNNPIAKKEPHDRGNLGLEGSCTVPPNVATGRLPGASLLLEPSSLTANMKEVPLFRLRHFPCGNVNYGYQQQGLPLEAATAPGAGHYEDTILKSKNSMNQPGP

recombinant human MET = recombinant human MET (Homo sapiens, UniProt P08581); experiment: biochemical
Sequence of recombinant human MET (P08581 956-1390 limits assumed): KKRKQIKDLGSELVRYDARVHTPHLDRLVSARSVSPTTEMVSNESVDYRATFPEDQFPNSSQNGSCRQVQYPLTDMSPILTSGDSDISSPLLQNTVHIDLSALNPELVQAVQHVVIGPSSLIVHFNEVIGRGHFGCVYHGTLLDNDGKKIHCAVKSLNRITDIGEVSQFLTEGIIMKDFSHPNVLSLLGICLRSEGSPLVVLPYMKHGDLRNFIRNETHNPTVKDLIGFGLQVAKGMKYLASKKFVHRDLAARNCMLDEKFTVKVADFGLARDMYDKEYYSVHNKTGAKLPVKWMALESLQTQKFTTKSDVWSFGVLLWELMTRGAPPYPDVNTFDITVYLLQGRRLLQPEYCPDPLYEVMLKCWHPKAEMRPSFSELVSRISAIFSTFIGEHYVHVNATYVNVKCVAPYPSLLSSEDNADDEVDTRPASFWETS
Method: The substrate that was phosphorylated by the kinase, polyglutamate-tyrosine (PolyGT), was purchased from SignalChem (Cat. #P61-58, lot #R098-4).
All other reagents were purchased from Sigma Aldrich. A Tecan Ultra microplate reader with XFluor4 software (Tecan, V4.51) and RdrOle software (Tecan, V4.50) were used in this study.
MET phosphorylated the polyGT substrate using the ATP cofactor and produced ADP. […] For most assays, a stock of ATP (1 mM) and PolyGT (1 mg/mL) was used. […] The reactions, in microplate, were incubated for 60 minutes at 25° C. on a heat block. Following this 60 minute incubation, the kinase activity was evaluated using the ADP-Glo system from Promega that monitored ADP produced when MET phosphorylated the PolyGT substrate.
Kinase assays were run in triplicate or quadruplicate in microplates. Following this, the ADP-Glo detection system (Promega) was used to determine how much ADP had been produced. For 10 μL volume assays, to each microplate well containing 10 μL of kinase reaction was added ADP-Glo reagent (10 μL), plates were spun in a table top centrifuge (1000 rpm (123×g) for 1 minute) to ensure no reagent remained on the well walls, and then agitated for 1 minute to ensure optimal mixing. Plates were incubated at 25 C on a heat block for 40 minutes. Next, kinase detection reagent (20 μL) was added and, as above, centrifugation and agitation were repeated; plates were allowed to incubate at 25° C. on a heat block for 30 minutes. Following the incubation of the kinase detection reagent, plates were read on a Tecan Ultra microplate reader. The Tecan Ultra contained a built-in plate definition file for the whole area 96-well white Corning plates but a plate definition file for the half area 96-well Corning plates was created using the RdrOle component of the Tecan Ultra software.
Kinases vary in their ability to turnover ATP in vitro; therefore, the activity of the MET over a concentration range from 0.78 ng to 20 ng was evaluated in assay volumes of 10 μL. See, FIG. 7.
Therefore, each mole of polymer of 20,000 g/mole would contain approximately 28 moles of the glu-glu-glu-glu-tyr “subpolymer” in a 10 μL assay volume containing 1 μg of the polyGT substrate. […] This was a vast excess of possible tyrosine phosphorylation sites, ensuring that the substrate for phosphorylation was not rate limiting (assuming the higher mass range would produce an even larger excess of glu-glu-glu-glu-tyr “subpolymers”).
Data from MET assays run on the Tecan Ultra microplate spectrophotometer were collected in Microsoft Excel. Error calculations and graphical representations were performed in Microsoft Office Excel (Microsoft Corporation, Redmond, Wash., USA). Determination of IC25 and IC50 values were accomplished using Origin Lab software (OriginLab Corporation, Northampton, Mass., USA).

Sequence of IGF1R (P08069 31-1367): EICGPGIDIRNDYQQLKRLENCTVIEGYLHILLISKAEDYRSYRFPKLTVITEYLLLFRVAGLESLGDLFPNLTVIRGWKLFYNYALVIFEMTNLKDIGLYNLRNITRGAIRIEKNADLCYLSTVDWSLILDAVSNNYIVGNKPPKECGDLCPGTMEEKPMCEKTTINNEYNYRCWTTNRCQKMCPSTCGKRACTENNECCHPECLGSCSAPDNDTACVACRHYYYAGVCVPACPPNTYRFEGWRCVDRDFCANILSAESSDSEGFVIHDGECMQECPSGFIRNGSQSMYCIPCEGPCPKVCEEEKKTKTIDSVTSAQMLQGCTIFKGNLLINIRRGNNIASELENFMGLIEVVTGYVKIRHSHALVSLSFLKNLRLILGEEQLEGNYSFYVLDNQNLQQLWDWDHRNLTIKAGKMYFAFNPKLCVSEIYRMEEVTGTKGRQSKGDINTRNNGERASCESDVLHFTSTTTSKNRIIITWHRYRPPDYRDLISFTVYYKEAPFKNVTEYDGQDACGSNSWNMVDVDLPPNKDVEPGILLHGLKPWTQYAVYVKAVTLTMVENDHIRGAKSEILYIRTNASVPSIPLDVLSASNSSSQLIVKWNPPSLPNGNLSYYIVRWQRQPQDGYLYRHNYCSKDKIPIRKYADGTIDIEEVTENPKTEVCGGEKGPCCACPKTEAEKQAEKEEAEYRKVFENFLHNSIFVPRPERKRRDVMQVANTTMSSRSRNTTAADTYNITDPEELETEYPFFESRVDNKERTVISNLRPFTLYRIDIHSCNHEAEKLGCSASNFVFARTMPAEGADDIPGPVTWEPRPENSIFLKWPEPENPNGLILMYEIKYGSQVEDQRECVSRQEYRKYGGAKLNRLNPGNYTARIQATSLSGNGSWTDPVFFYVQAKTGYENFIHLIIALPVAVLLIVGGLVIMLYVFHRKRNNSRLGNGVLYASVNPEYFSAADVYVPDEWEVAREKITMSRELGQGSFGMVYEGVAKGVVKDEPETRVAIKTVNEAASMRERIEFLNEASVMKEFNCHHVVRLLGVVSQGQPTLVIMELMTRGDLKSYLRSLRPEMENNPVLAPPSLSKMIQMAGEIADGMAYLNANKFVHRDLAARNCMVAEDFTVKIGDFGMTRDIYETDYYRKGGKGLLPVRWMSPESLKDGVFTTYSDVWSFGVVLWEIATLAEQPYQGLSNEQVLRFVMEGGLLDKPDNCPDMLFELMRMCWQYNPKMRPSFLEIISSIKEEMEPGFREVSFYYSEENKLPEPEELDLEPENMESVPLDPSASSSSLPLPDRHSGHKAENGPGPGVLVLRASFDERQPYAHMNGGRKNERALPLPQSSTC

Question: For `O=S(=O)([O-])CCSSCCS(=O)(=O)[O-].[Na+].[Na+]` [Tavocept, disodium 2,2′-dithio-bis-ethane sulfonate], which “loss of IGF1R kinase activity” value (IGF1R; 20 mM Tavocept pre-incubated with IGF1R for 24 hours, 100 μM ATP) is on record?
Answer: approximately 33%

Question: And the “loss of IGF1R kinase activity” value (IGF1R; other concentrations and pre-incubation times)?
Answer: ≤ 10%

Question: And the “number of Tavocept-derived mesna adducts on Human Grx” value (Human Grx; Mass Spectrum)?
Answer: two

Question: And the “Grx cysteines with Tavocept-derived mesna adduct” value (Human Grx; atomic resolution map)?
Answer: Cys7 (Panel A) and Cys82

Question: What about the “Effect on ALK kinase activity” value [1] of the same molecule?
Answer: resulting in inhibition of ALK kinase

Question: And the “greater inhibition of MET than Staurosporine alone” value (from here on “greater inhibition”) (recombinant human MET; 10 μM ATP, MET 0.1 ng/μL, 5 mM Tavocept + 100 nM Staurosporine)?
Answer: 22%

Question: What about the “greater inhibition” value (recombinant human MET; 10 μM ATP, MET 0.1 ng/μL, 5 mM Tavocept + 300 nM Staurosporine) of the same molecule?
Answer: 8%

Question: And the “greater inhibition” value (recombinant human MET; 10 μM ATP, MET 0.1 ng/μL, 10 mM Tavocept + 100 nM Staurosporine)?
Answer: 23%

Question: What about the “greater inhibition” value (recombinant human MET; 10 μM ATP, MET 0.1 ng/μL, 10 mM Tavocept + 300 nM Staurosporine) of the same molecule?
Answer: 8%

Question: What about the IC50 (recombinant human MET; IC50, MET 2.5 ng/μL, ATP 100 μM) of the same molecule?
Answer: > 40 mM

Question: What about the IC50 (recombinant human MET; IC50 on MET, 10 μM ATP, 0.1 ng/μL MET) of the same molecule?
Answer: 15.2 ± 0.36 mM

Question: What about the IC50 (recombinant human MET; IC50 on MET, 10 μM ATP, 2.5 ng/μL MET, single experiment) of the same molecule?
Answer: 17.4 mM

Question: And the IC50 (recombinant human MET; IC50 on MET, 100 μM ATP, 0.1 ng/μL MET, single experiment)?
Answer: 37.1 mM

Question: What about the IC50 (recombinant human MET; IC50 on MET, 100 μM ATP, 2.5 ng/μL MET) of the same molecule?
Answer: > 40 mM

Question: And the inhibition at 5000 µM (recombinant human MET; read-out: greater inhibition of MET than Crizotinib alone, 10 μM ATP, MET 0.1 ng/μL, 5 mM Tavocept + 20 nM Crizotinib)?
Answer: 10%

Question: And the inhibition at 5000 µM (recombinant human MET; read-out: greater inhibition of MET than Crizotinib alone, 10 μM ATP, MET 0.1 ng/μL, 5 mM Tavocept + 40 nM Crizotinib)?
Answer: 6%

Question: And the inhibition at 10000 µM (recombinant human MET; read-out: greater inhibition of MET than Crizotinib alone, 10 μM ATP, MET 0.1 ng/μL, 10 mM Tavocept + 20 nM Crizotinib)?
Answer: 16%

Question: What about the inhibition at 10000 µM (recombinant human MET; read-out: greater inhibition of MET than Crizotinib alone, 10 μM ATP, MET 0.1 ng/μL, 10 mM Tavocept + 40 nM Crizotinib) of the same molecule?
Answer: 11%

Question: And the inhibition at 5000 µM (recombinant human MET; read-out: greater inhibition of MET than Crizotinib alone, 100 μM ATP, MET 2.5 ng/μL, 5 mM Tavocept + 45 nM Crizotinib)?
Answer: 15%

Question: What about the inhibition at 5000 µM (recombinant human MET; read-out: greater inhibition of MET than Crizotinib alone, 100 μM ATP, MET 2.5 ng/μL, 5 mM Tavocept + 90 nM Crizotinib) of the same molecule?
Answer: 10%

Question: And the inhibition at 10000 µM (recombinant human MET; read-out: greater inhibition of MET than Crizotinib alone, 100 μM ATP, MET 2.5 ng/μL, 10 mM Tavocept + 45 nM Crizotinib)?
Answer: 14%

Question: What about the inhibition at 10000 µM (recombinant human MET; read-out: greater inhibition of MET than Crizotinib alone, 100 μM ATP, MET 2.5 ng/μL, 10 mM Tavocept + 90 nM Crizotinib) of the same molecule?
Answer: 10%

Question: And the inhibition at 5000 µM (recombinant human MET; read-out: greater inhibition of MET than Staurosporine alone, 10 μM ATP, MET 0.1 ng/μL, 5 mM Tavocept + 100 nM Staurosporine)?
Answer: 22%

Question: And the inhibition at 5000 µM (recombinant human MET; read-out: greater inhibition of MET than Staurosporine alone, 10 μM ATP, MET 0.1 ng/μL, 5 mM Tavocept + 300 nM Staurosporine)?
Answer: 8%

Question: What about the inhibition at 10000 µM (recombinant human MET; read-out: greater inhibition of MET than Staurosporine alone, 10 μM ATP, MET 0.1 ng/μL, 10 mM Tavocept + 100 nM Staurosporine) of the same molecule?
Answer: 23%

Question: What about the inhibition at 10000 µM (recombinant human MET; read-out: greater inhibition of MET than Staurosporine alone, 10 μM ATP, MET 0.1 ng/μL, 10 mM Tavocept + 300 nM Staurosporine) of the same molecule?
Answer: 8%
